Experimental data as given in patent publication US20080318931A1, “Treatment of Disorders and Diseases of the Colon” (priority 2004, published 2008).

Legend:
[1] = tested on: TH1 cytokines TNF-α, IL2 and INFγ; experiment: TH1 cytokine secretion (TNF-α, IL2, INFγ) from Con-A-induced splenocytes, ELISA; assay type: cell-based, mouse; conditions: 2.5-10 μM, 48 hours, 1×10^6 cells/well
Protocol: Effect of paroxetine, (SSRI) and clomipramine (TCA) as compared to dexamethasone on Con-A-induced splenocyte proliferation (alamar blue method), and splenocyte-induced secretion of TH1 cytokines TNF-α, IL2 and INFγ, 1×10^6 cells/well, was measured 48 hours after exposure to drugs (2.5-10 μM).
Cytokines were determined in the supernatant of the splenocyte specimens using an ELISA kit and protocol (Reagents by Cytolab). […] The pattern observed resembles that of dexamethasone.

[2] = tested on: human PBMC; experiment: Viability of LPS-exposed human PBMC, alamar blue; assay type: cell-based; conditions: LPS 2 ug/well, 2.5-30 μM, 48 hours, both subjects
Protocol: Human PBMC were isolated from whole blood of 2 healthy volunteers (A and B subjects). Cells (2×10^6/ml) were exposed to LPS (2 ug/well) and treated with either the vehicle, or with paroxetine, sertraline, clomipramine and trifluoperazine (2.5-30 μM).

[3] = tested on: splenocytes derived from treated mice; experiment: ConA/basal proliferation ratio of splenocytes from mice treated in vivo for 7 days; design: species or system mouse; conditions: paroxetine 7.5, clomipramine 15 mg/kg x3/week i.p., Con A 5 μM in vitro
Protocol: Paroxetine or clomipramine were administered at 7.5 and 15 mg/kg x3/week i.p, respectively. Splenocytes were derived from treated animals.
Each group represents the mean of a pool of 5 animals.

[4] = tested on: Con-A activated splenocytes; conditions: 5 μM
Protocol: (§2) LPS (manufactured by Sigma St. Louis Mo., USA, cat no L2880) was administered at 100 μg/mouse×2, on day 7 and day 14).

[5] = tested on: DSS-induced acute colitis; experiment: Rat model of DSS-induced acute colitis; assay type: in vivo; conditions: for number of days with significant DAI difference vs control: 9 days in water-treated DSS group
Protocol: Potential anti-IBD effect of two different doses of paroxetine, namely 0.2% and 0.4% was assessed in the rat model of DSS-induced acute colitis (DSS—dextran sulfate sodium). The use of DSS is a well-defined method for the induction of colitis' in animals. DSS can be controlled more precisely regarding molecular weight distribution, grade of sulfate incorporation and impurities than other agents typically used to achieve the same clinical end-point. This reagent model is suitable for screening of new drugs as it uses small animals, the oral administration of the agent is convenient to use in large groups of animals and the induced colitis responds to treatment with conventional drugs (see for example Axelsson et al, 1993).
Paroxetine (oral suspension, protected from light at or below 25° C.) was administered at two respective doses of 7.5 and 15 mg/kg by one daily repeated oral gavage (PO) for 16 days. Colitis induction commenced two days following initiation of treatment by continuous exposure ad libitum of the test animals to 3% DSS (36-50 kDa) in their drinking water (chlorinated and acidified, pH range of 5.1-5.9, freshly prepared on even test days). […] Two additional paroxetine-treated non-DSS induced groups were likewise treated with the same selected does to detect any unforeseen paroxetine related effects. Test groups comprised either n=8 (DSS induced) or n=4 (non-DSS induced) male Sprague Dawley (SD) rats (healthy, young […] weeks of age, total of 36 animals).
Evaluation of anti-IBD effect was based on the following […] parameters: a. Daily clinical scoring of the characteristic experimental colitis signs, consisting of body weight loss, altered fecal consistency and hematochezia and expressed as Disease Activity Index (DAI); b. Body weight determination; c. Colon length; d. Macroscopic colon lesions scores noted at necropsy; and e. microscopic colon lesions score.
The histological scoring system for the 3% DSS-induced colonic inflammation is shown below in Tables 1 and 2:
Final data evaluation was carried out by statistical analysis of differences between mean group values for each of the above listed parameters in the DSS-induced groups vs. respective mean values in the water-treated non-DSS induced group.

[6] = tested on: C-jun; experiment: C-jun expression in HT29 cells, western blot; assay type: cell-based, human; conditions: 10 and 20 μM, 24 hr
Protocol: (§1) The effect of paroxetine and sertraline on the expression of bcl-2 and C-jun was evaluated in human colon HT29 cell-line 24 hr after drug administration, using western blot analysis for C-jun and bcl-2 and specific antibodies.

[7] = tested on: Con-A activated splenocytes; experiment: cells; conditions: Mus musculus, Splenocyte, read-out: inhibition of viability, splenocytes from naïve animals
Protocol: as §2

[8] = tested on: bcl-2; experiment: bcl-2 expression in HT29 cells, western blot; assay type: cell-based, human; conditions: 10 and 20 μM, 24 hr
Protocol: as §1

[9] = tested on: mouse splenocytes (basal); experiment: Basal mouse splenocyte viability, alamar blue; assay type: cell-based; conditions: 2.5-10 μM, 48 hr
Protocol: Mouse splenocytes were isolated from C57b1 healthy female mice. Cells (10,000/well) were tested under basal and ConA stimulation. Cells were treated with vehicle, dexamethasone or antidepressants (2.5-10 μM). Viability was assessed 48 hr later using alamar blue staining. (Reagents were manufactured by Wildflower, Santa Fe, N. Mex., USA.) Alamar blue assay was performed as in Nociari et al (1998).

[10] = tested on: Human Colon carcinoma (HT29) cell-line; experiment: Viability of human colon carcinoma HT29 cells, alamar blue and neutral red; assay type: cell-based; conditions: 10-30 μM, FIG. 14
Protocol: Human Colon carcinoma (HT29) cell-line (ATCC USA) was maintained in RPMI medium supplemented with 10% fetal calf serum and penicillin (100 u/ml), streptomycin (100 mcg/ml), nystatin (12.5 u/ml), L-glutamine (2 mM). Confluent cultures were washed with phosphate-buffered saline (PBS), detached with trypsine (0.25%), centrifuged, and subcultured in 96-well microtiter test plates. Cells were exposed to vehicle or to psychotropic drugs. Cell viability was measured 24 hours later using the alamar blue and neutral red methods. Results were expressed as % of controls (vehicle treated cells). Each sample is the Mean+/−[…] of 4 determinations.

[11] = tested on: Cox-2; experiment: Cox-2 expression in human PHA activated lymphocytes, Western blot; assay type: cell-based; conditions: 5 μM, PHA 15 μM
Protocol: Total protein lysates from human lymphocyte culture were prepared by agitation with lysis buffer (20 mM Tris pH 7.5, 150 mM NaCl, 1 mM EDTA, 1% Nonidet P-40, 0.5% sodium deoxycholate, and 2 mM Na2VO4) for 1 h at 4° C. The proteins were cleared by centrifugation at 14,000×g for 20 min at 4° C. Protein concentration was determined using BCA kit (Pierce, Ill., USA). For Western blot analysis, 30 μg-protein from each sample were loaded in 7.5% SDS-PAGE. Electroblotted proteins were detected using specific anti COX-2 polyclonal antibody (Cayman chemical company, Michigan, USA) or an ti-Stat3 monoclonal antibody (Transduction Laboratories Lexington UK). Bound antibodies were visualized using chemiluminescence reaction.

In the case of `Fc1ccc([C@@H]2CCNC[C@H]2COc2ccc3c(c2)OCO3)cc1` [paroxetine], the “lymphocyte-induced pro-inflammatory cytokine secretion” value [1] is reported as “decrease”, the “order of potency, decrease in cell viability” value [2] is reported as “sertraline>paroxetine>trifluoperazine>/=clomipramine” and the “capacity to respond to Con-A (ratio ConA/basal) vs vehicle treated mice” value [3] is reported as “not”. The “response of splenocytes from LPS mice treated in vivo with sertraline” value ([4]; LPS mice + sertraline 5 mg/kg×3/week two weeks) was “more responsive”, the “response of splenocytes from LPS mice” value ([4]; LPS-treated mice) was “in a manner similar to the naive animals” and the “mean body weight vs respective control” value ([5]; both doses (7.5 and 15 mg/kg PO), DSS-induced) was “did not reach statistical significance”. For the same compound, the “mean colon length vs water-treated non-DSS induced group” value ([5]; both doses, p<0.05) was “significantly shorter”, the “medians of histopathological scores (lateral and in-depth extension)” value ([5]; both doses, differences not statistically significant) was “lower than for the control group” and the “day of peak DAI score” value ([5]; both paroxetine-treated DSS-induced groups) was 10 days. For the same compound, the “mean macroscopic colon score vs control” value ([5]; high dose) was “did not significantly differ”, the “number of days with significant DAI difference vs control” value ([5]; high paroxetine dose) was 6 days and the mortality ([5]; high-dose (15 mg/kg PO) DSS-induced group) was “No mortality”. For the same compound, the “mean macroscopic colon score vs control” value ([5]; low dose, p<0.01) was “significantly higher”, the “number of days with significant DAI difference vs control” value ([5]; low paroxetine dose) was 5 days and the “overall anti-IBD effect” value ([5]; oral suspension, 7.5 and 15 mg/kg) was “trend of anti-IBD effect with a dose-response”. The mortality ([5]; the dose paroxetine-treated DSS-induced group, n=8, PO daily 16 days) was “one”, the “expression of C-jun” value [6] was “stimulation” and the cytotoxicity at 5 µM [7] was 10%. The “expression of bcl-2” value [8] was “inhibition”, the basal splenocyte proliferation [9] was “dose dependent decrease” and the “inhibition of cell viability” value [10] was 64%. The “PHA-induced increase in Cox-2 expression” value [11] was “antagonized”.
